The target of test [1] is T1, Methionine aminopeptidase (Escherichia coli K-12, UniProt P0AE18).
T1 sequence (P0AE18 whole entry): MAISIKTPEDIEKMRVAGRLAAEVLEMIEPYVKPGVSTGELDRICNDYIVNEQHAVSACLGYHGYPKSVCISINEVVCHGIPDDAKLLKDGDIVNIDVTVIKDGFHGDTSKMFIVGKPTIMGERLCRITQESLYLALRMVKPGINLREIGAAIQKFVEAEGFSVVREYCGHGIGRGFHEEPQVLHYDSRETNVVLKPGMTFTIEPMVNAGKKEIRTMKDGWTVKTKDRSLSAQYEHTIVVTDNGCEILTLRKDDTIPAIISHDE
The experiment in a line: Inhibitory concentration required against Escherichia coli MetAP1 (150 nM).

Test [2] concerns the target T2, Methionine aminopeptidase 1 (Saccharomyces cerevisiae S288c, UniProt Q01662).
T2 sequence (Q01662 whole entry): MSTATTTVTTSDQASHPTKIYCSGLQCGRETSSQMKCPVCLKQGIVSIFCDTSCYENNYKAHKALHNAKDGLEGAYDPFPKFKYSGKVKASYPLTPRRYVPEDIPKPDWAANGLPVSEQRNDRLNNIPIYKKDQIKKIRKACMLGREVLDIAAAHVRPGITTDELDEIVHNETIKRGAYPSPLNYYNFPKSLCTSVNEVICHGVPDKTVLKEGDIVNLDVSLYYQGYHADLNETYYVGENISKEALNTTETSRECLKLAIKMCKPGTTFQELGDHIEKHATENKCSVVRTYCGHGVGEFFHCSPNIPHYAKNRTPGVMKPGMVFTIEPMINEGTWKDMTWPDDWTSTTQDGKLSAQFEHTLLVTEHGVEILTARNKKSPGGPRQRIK
The experiment in a line: Inhibitory concentration required against Saccharomyces cerevisiae MetAP1 (330 nM).

The term IC50 denotes the concentration that gives 50% inhibition.

`O=C(CN1CCOCC1)Nc1scnc1C(=O)Nc1nccs1`: the IC50 in test [1] is 110 nM; in test [2] it was 4710 nM. On the same counts, the results for `Cc1scnc1C(=O)Nc1nccs1` are 180 nM and 9820 nM. For `O=C(Nc1nccs1)c1ncsc1NC(=O)C1CCC1` the same measures were 40 nM and 250 nM.

As to `O=C(Nc1scnc1C(=O)Nc1nccs1)c1ccccc1F`, the IC50 was 76 nM in test [1] and 990 nM in test [2]. For `CC(C)=CCCC(C)Cc1scnc1C(=O)Nc1nccs1` (stereo not drawn), the IC50 in test [1] stood at 170 nM; in test [2], 2110 nM. On to `C=CC(C)C(=O)Nc1scnc1C(=O)Nc1nccs1` (stereo not drawn), for which the IC50 in test [1] was found to be 44 nM; in test [2], 370 nM.

Turning to `CC(C)c1scnc1C(=O)Nc1nccs1`, the results for the IC50 in test [1] and in test [2] were 220 nM and 7200 nM, respectively. Regarding `O=C(Nc1scnc1C(=O)Nc1nccs1)c1cccc(Cl)c1`, the IC50 in test [1] was determined as 270 nM; in test [2] it was 1830 nM. Regarding `O=C(Nc1scnc1C(=O)Nc1nccs1)c1ccc(F)cc1`, the IC50 in test [1] is 110 nM; in test [2] it was 480 nM.

For `O=C(Nc1nccs1)c1ncsc1NC(=O)C1CCCC1`, the IC50 in test [1] amounted to 24 nM; in test [2], 130 nM. Take `CC(C)=CCC(=O)Nc1cccnc1C(=O)Nc1nccs1`: in test [2], half-maximal inhibition (IC50) was put at 140 nM. In the case of `CCCCCc1scnc1C(=O)Nc1nccs1`, the IC50 in test [1] was determined as 160 nM; in test [2] it was 980 nM. On the same counts, the results for `CCc1scnc1C(=O)Nc1nccs1` are 180 nM and 7640 nM. Regarding `O=C(CN1CCCCC1)Nc1cccnc1C(=O)Nc1nccs1`, in test [1], the concentration for half-maximal inhibition (IC50) amounted to 53 nM. For `COC(Cc1scnc1C(=O)Nc1nccs1)C(C)C` (stereo not drawn), the results for the IC50 in test [1] and in test [2] were 89 nM and 500 nM, respectively. As for `COC(C)Cc1scnc1C(=O)Nc1nccs1` (stereo not drawn), the results for the IC50 in test [1] and in test [2] were 74 nM and 880 nM, respectively. For `O=C(Nc1nccs1)c1cscn1` the same measures were 110 nM and 2260 nM. For the molecule `O=C(Nc1nccs1)c1ncsc1Cc1ccc(F)cc1Cl`, the IC50 was 82 nM in test [1] and 900 nM in test [2].

Take `CCC(=O)Nc1scnc1C(=O)Nc1nccs1`: the IC50 is 81 nM in test [1] and 220 nM in test [2]. On the same counts, the results for `O=C(O)CC(=O)Nc1scnc1C(=O)Nc1nccs1` are 88 nM and 4910 nM.

On to `CCCCCCCCCCCc1scnc1C(=O)Nc1nccs1`, for which the IC50 in test [1] was 76500 nM; in test [2], over 100000 nM. On the same counts, the results for `COc1ccccc1C(=O)Nc1scnc1C(=O)Nc1nccs1` are 190 nM and 3320 nM. Regarding `O=C(Nc1nccs1)c1ncsc1NC(=O)C1CC1`, the IC50 in test [1] worked out at 42 nM; in test [2], 6380 nM. Turning to `C=CCC(=O)Nc1scnc1C(=O)Nc1nccs1`, the results for the IC50 in test [1] and in test [2] were 54 nM and 2630 nM, respectively. On the same counts, the results for `CN(C)CC(=O)Nc1scnc1C(=O)Nc1nccs1` are 300 nM and 10500 nM. On the same counts, the results for `COCC(=O)Nc1scnc1C(=O)Nc1nccs1` are 92 nM and 1530 nM. As for `Nc1scnc1C(=O)Nc1nccs1`, the figures for the IC50 in test [1] and in test [2] were 1970 nM and 13200 nM, respectively.

Turning to `O=C(Nc1nccs1)c1ncsc1CCc1ccccc1`, the results for the IC50 in test [1] and in test [2] were 65 nM and 660 nM, respectively. Consider `CC(=O)OCC(=O)Nc1scnc1C(=O)Nc1nccs1`, for which the IC50 in test [1] amounted to 76 nM; in test [2], 2650 nM. On the same counts, the results for `O=C(Nc1nccs1)c1ncsc1-c1ccccc1` are 210 nM and 3410 nM. For `CCOC(=O)CC(=O)Nc1scnc1C(=O)Nc1nccs1` the same measures were 66 nM and 670 nM. For `O=C(CN1CCCC1)Nc1scnc1C(=O)Nc1nccs1` the same measures were 160 nM and 860 nM. Take `CC(C)(C)OC(=O)Nc1scnc1C(=O)Nc1nccs1`: the values for the IC50 in test [1] and in test [2] were 60 nM and 4620 nM, respectively. `O=C(Nc1nccs1)c1ncsc1Cc1ccccc1`: the figures for the IC50 in test [1] and in test [2] were 170 nM and 3800 nM, respectively. Regarding `CC(C)Cc1scnc1C(=O)Nc1nccs1`, the IC50 is 100 nM in test [1] and 990 nM in test [2]. On the same counts, the results for `O=C(CN1CCCCC1)Nc1scnc1C(=O)Nc1nccs1` are 140 nM and 1450 nM. On to `O=C(COCc1ccccc1)Nc1scnc1C(=O)Nc1nccs1`, for which the IC50 in test [1] came to 29 nM; in test [2] it was 1120 nM. As to `C=CCC(=O)Nc1cccnc1C(=O)Nc1nccs1`, 130 nM corresponded to half-maximal inhibition in test [1] (IC50).

Source of the values: ChEMBL document CHEMBL1142777, “Identification of potent type I MetAP inhibitors by simple bioisosteric replacement. Part 1: Synthesis and preliminary SAR studies of thiazole-4-carboxylic acid thiazol-2-ylamide derivatives” (Bioorg Med Chem Lett, 2005).
